Data as given in article PMC6849348, “Theranostic Application of a Novel G-Quadruplex-Forming DNA Aptamer Targeting Malate Synthase of Mycobacterium tuberculosis” (Molecular Therapy. Nucleic Acids, 2019).

Molecular target: MS (malate synthase, GlcB, Rv1837c) (Mycobacterium tuberculosis, UniProt P9WK17)
Assay: DTNB assay of released CoA-SH at […] nm
Type: biochemical

MS (malate synthase, GlcB, Rv1837c), sequence (P9WK17 whole entry, looked up): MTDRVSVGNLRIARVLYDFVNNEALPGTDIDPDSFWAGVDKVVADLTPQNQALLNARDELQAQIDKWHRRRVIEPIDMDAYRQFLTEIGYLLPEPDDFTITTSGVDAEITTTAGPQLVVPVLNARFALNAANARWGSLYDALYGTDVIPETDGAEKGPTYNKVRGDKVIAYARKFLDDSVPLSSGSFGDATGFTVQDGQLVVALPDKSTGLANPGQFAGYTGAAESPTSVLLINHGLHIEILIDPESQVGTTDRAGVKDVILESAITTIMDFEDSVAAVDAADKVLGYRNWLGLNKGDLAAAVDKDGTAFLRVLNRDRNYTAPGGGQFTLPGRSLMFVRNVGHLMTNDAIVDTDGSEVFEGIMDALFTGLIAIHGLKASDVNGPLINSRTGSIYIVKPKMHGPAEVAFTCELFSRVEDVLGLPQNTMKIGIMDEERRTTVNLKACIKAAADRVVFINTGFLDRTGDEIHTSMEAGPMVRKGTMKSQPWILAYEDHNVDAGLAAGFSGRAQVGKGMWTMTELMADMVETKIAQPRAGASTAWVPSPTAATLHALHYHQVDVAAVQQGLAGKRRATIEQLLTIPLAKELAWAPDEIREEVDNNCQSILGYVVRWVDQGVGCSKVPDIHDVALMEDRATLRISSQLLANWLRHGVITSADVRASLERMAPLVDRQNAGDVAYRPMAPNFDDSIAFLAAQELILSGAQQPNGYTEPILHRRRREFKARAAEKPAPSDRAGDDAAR

O=C(O)C(=O)CBr [bromopyruvate]
IC50: 114 µM

C=C(OP(=O)(O)O)C(=O)O [phosphoenolpyruvate]
IC50: 374 µM
